“Also recorded” adds a separate entry of the source. Where two headings read alike, the source gives them in different places. Where a SMILES comes first, the peptide text is derived from it. Bridges are numbered along the chain shown (N, C = ends). Where no end group is shown, it is not given here.
Legend:
[1] = solubility in assay/binding buffer; assay type: physicochemical; details: assay buffer of the IgE binding inhibition assay
[2] = biological target: T1, alpha subunit of the human FcεRI receptor (Homo sapiens, UniProt P12319); experiment: cell-based 125I-IgE binding inhibition assay on CHO FcεRI+ cells
T1 construct: expressed in transfected cells; host or cells: Chinese hamster ovary (CHO FcεRI+) cells
T1 sequence (P12319 26-257): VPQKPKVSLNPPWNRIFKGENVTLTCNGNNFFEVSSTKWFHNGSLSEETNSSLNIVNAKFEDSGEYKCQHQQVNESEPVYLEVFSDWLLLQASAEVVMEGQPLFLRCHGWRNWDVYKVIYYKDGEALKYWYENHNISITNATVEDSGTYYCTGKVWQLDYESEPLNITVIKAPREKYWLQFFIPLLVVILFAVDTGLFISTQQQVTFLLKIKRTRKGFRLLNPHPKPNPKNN
Procedure, shortened: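 Peptides, serially diluted 1:3 from 50-500 uM, preincubated 1 h at room temperature on CHO cells expressing human FcεRI alpha, then 1.5 nM 125I-IgE added for 45-60 min at 4 °C. Buffer F12/DMEM, 1% BSA, 0.05% NaN3, pH 7.2. Bound counts by gamma counting; IC50 from 4-parameter fits.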

[3] = 2D NMR structural score versus reference peptide; assay type: physicochemical; set-up: key to Structure Score: +++, peptide structurally similar to reference; +, structurally similar to reference but significantly less stable; +/−, peptide has some elements of stable structure, but the conformation differs from the reference structure; −, peptide is predominantly unstructured; *peptide IGE037 (SEQ ID NO:128) was initially unstructured (monomeric form), but became structured after spontaneous dimer formation; details: reference IGE134
Procedure, shortened: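 Backbone ¹H resonances assigned by 2D NMR and ³JHN-Hα coupling constants measured against a reference peptide. Structure scored similar when chemical shifts, coupling constants and NOEs are consistent with the reference structure.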

[4] = disulfide reshuffling of monomer peptide to homodimer in solution; assay type: physicochemical; details: in water or buffer at neutral pH
Text: This change occurs slowly, over a 3-12 day period following the solubilization of the peptide in water or buffer at neutral pH. […] Additional support for the occurrence of a change came from NMR data detecting a change in the one-dimensional NMR spectrum. Also HPLC reverse phase data indicated a change in retention time that correlated with the activity and the conversion of a monomer to a dimer. Final confirmation of the formation of an active dimer followed the syntheses of both parallel (IGE088, SEQ ID NO:128, 128) and anti-parallel (IGE089, SEQ ID NOS:128, 157) […] disulfide-linked dimer peptides. Both peptide forms were assayed for activity in inhibiting I^125-IgE binding to cell surface expressed FcεRI.

FcεRI = biological target: T2, FcεRI (Homo sapiens, UniProt P12319); experiment: competitive phage ELISA on baculovirus-derived FcεRI; assay type: binding; details: compared with the parent
T2 construct: human FcεRI(aa 1-176) was expressed using a baculovirus secretion expression system; host or cells: Hi-5 insect cells infected with baculovirus (virus produced in Sf9; transfer vector pAcGP67)
T2 sequence (P12319 26-201): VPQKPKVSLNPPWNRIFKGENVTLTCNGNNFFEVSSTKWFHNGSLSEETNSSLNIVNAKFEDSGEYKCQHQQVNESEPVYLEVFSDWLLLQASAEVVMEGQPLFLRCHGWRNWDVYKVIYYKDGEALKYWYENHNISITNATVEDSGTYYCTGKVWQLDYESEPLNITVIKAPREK
Text: The extracellular domain of the alpha subunit of the human FcεRI(aa 1-176) was expressed using a baculovirus secretion expression system (Pharminten). cDNA encoding this domain was obtained through PCR of a plasmid containing a full length clone. The DNA fragment was ligated into baculovirus tranfer vector pAcGP67 and along with BaculoGold linearized baculovirus DNA was transfected into Sf9 cells Spodoptera frugiperda insect cells for baculovirus production (Pharmingen). Soluble FcεRI was affinity purified from the growth media of baculovirus infected Hi-5 insect cells (Expression Systems).
Phage ELISA assays were carried out as described (Lowman, 1998, supra), using Nunc Maxisorp™ plates coated with a 2 μg/mL solution of baculovirus-derived FcεRI. Peptide-phage were pre-incubated for 5-10 min with serial dilutions of receptor, then added to the receptor-coated plate. After incubation for 1 h at room temperature, the plates were washed and an anti-phage HRP-conjugated antibody (Pharmacia) was added. After further incubation for 20 min, plates were again washed and developed using the substrate OPD (Sigma). Optical density at 492 nm was read and plotted as a function of FcεRI concentration to determine an IC50 of inhibition by each peptide-phage variant.
A phage-based alanine scanning approach was used to map the FcεRI binding determinants of IGE134 (SEQ ID NOS:155, 171), as described above for IGE120 (SEQ ID NO:131, 159). […] Additionally, combinations of Ala mutations, deletions, and other substitutions were tested.

FcεRIα = biological target: T3, FcεRIα (Homo sapiens, UniProt P12319); experiment: surface plasmon resonance biosensor direct-binding assay
T3 construct: human FcεRI(aa 1-176) was expressed using a baculovirus secretion expression system; host or cells: Hi-5 insect cells infected with baculovirus (virus produced in Sf9; transfer vector pAcGP67)
T3 sequence (P12319 26-201): T2 sequence (P12319 26-201)
Protocol: Several peptides were also tested in a direct-binding assay using a surface plasmon resonance biosensor (Lofas & Johnsson, J. Chem. Soc. Commun. 21, 1526-1528 (1990)). FcεRIα, produced in baculovirus infected insect cells, was immobilized by the surface thiol method (BIAcore Methods Manual Supplement 5a, BIAcore, Inc., Piscataway, N.J.). Briefly, receptor was reacted with 2-(2pyridinyldithio)ethaneamine hydrochloride (PDEA; Natake & Swaisgood, J. Biochem. 74, 77-86 (1973)), desalted into 10 mM sodium acetate (pH 4.8) and stored in aliquots at −80″C. Thawed PDEA-receptor was injected over carboxymethyl-dextran (B1 or CM5, BIAcore, Inc.) biosensor chips preactivated with N-ethyl-N′-(3-dimethylaminopropyl)-carbodiimide hydrochloride (EDC) and N-hydroxysuccinimide (NHS), cystamine, and DTT. Following coupling, reactive groups on the chip were quenched with […] and ethanolarine. Serial dilutions of peptide in running buffer (phosphate-buffered saline containing 0.05% Tween-20, 0.01% sodium azide) were injected over the immobilized receptor, and the net amount of peptide bound at steady-state was measured as the net change in response (RU) at a point just prior to termination of peptide injection, compared to a running-buffer baseline. Binding affinities (Table 10) are reported as the midpoint (EC50) of a 4-parameter fit to the peptide saturation curve.

RBL-48 cells = biological target: T4, RBL-48 cells (Homo sapiens, UniProt P12319); experiment: histamine release assay: induction of histamine release by peptide; details: peptide 0.5 mM on RBL-48 cells
T4 sequence (P12319 26-257): T1 sequence (P12319 26-257)
Protocol: Peptides were assayed in a histamine release assay (Lowe et al., (1995) J. Immunol. Methods, 184:113-122) to determine: (1) if the peptides could trigger histamine release and (2) if the peptides could prevent histamine release in the presence of ragweed and ragweed specific IgE. Rat basophil cell line RBL-48, which expresses the human FcεRI alpha subunit was cultured overnight in Falcon 96 flat well microtiter dishes. The cells were washed three times with growth media and then incubated in Iscove's MEM medium containing 10% fetal bovine serum and 3 USP units per milliliter of heparin (histamine assay buffer).

With `CSCC[C@H](NC(=O)[C@@H]1CSSC[C@H](NC(=O)[C@@H](NC(=O)[C@H](C)NC(=O)[C@H](CCC(=O)O)NC(=O)[C@H](C)N)[C@@H](C)O)C(=O)N[C@@H]([C@@H](C)O)C(=O)N[C@@H](CCC(=O)O)C(=O)NCC(=O)N2CCC[C@H]2C(=O)N[C@@H](Cc2c[nH]c3ccccc23)C(=O)NCC(=O)N[C@@H](Cc2c[nH]c3ccccc23)C(=O)N[C@@H](C(C)C)C(=O)N1)C(=O)N[C@@H](C)C(=O)N[C@@H](C)C(=O)N[C@@H](CC(=O)O)C(=O)O` [AEATCTEGPWGWVCMAAD] (H-AEATCTEGPWGWVCMAAD-OH; disulfide 5-14) the “solubility in the assay/binding buffer” value [1] was “not soluble; also recorded: insoluble”.
With `CC(C)C[C@H](NC(=O)[C@H](C)N)C(=O)N[C@H]1CSSC[C@@H](C(=O)N[C@@H](Cc2ccc(O)cc2)C(=O)N[C@H](C(N)=O)C(C)C)NC(=O)[C@H](C(C)C)NC(=O)[C@H](C)NC(=O)[C@@H]2CCCN2C1=O` [IGE037, ALCPAVCYV-nh2] (H-ALCPAVCYV-NH2; disulfide 3-7; N-terminus assumed) the IC50 ([2]; IGE037: initially, read-out: IC50) was about 300000 nM, the “Structure Score” value [3] was “+++*” and the “period of conversion of monomer to disulfide linked homodimer” value [4] was 3 to 12 days.
For `CC(C)C[C@@H]1NC(=O)[C@H](CCC(=O)O)NC(=O)[C@H](Cc2ccc(O)cc2)NC(=O)[C@@H]2CSSC[C@H](NC(=O)[C@H](CC(C)C)NC(=O)[C@H](CCC(=O)O)NC(=O)[C@H](Cc3ccc(O)cc3)NC(=O)[C@H](CC(=O)O)NC1=O)C(=O)N1CCC[C@H]1C(=O)N[C@@H](CC(=O)O)C(=O)N[C@@H](C(C)C)C(=O)N[C@H](C(=O)N[C@@H](Cc1ccc(O)cc1)C(=O)N[C@H](C(N)=O)C(C)C)CSSC[C@H](NC(=O)[C@H](CCC(N)=O)NC(=O)[C@@H](N)C(C)C)C(=O)N1CCC[C@H]1C(=O)N[C@@H](Cc1c[nH]cn1)C(=O)N[C@@H](Cc1ccccc1)C(=O)N2` [IGE134] (H-VQCPHFCYELDYELCPDVCYV-NH2; disulfide 3-19, 7-15; N-terminus assumed), the IC50 ([2]; average IC50, inhibition assay (Table 9)) was 32 nM, the “Structure Score” value [3] was “+++” and the “relative binding affinity (in words)” value (FcεRI) was “improved affinity over IGE122”. It also gave a Kd (FcεRIα) of 32 nM.
For “PRCTEGPWGWVCM (disulfide 3-12 (inferred); not fully specified (C-terminus))”, the “levels of histamine released” value (RBL-48 cells) was “equivalent to that of the negative control”.

From patent US20040086942A1, “Ige receptor antagonists” (priority 2003, published 2004)
